One test addresses T1, Human Factor D (Homo sapiens, UniProt P00746).
T1 construct: purified from human serum; purchased Complement Technology, Inc; host or cells: human serum
Nature of the test: Human Factor D assay (Example 8).
Conditions: not given
Type of test: biochemical. The method, then:
Human Factor D (purified from human serum, Complement Technology, Inc.) at 80 nM final concentration was incubated with test compound at various concentrations for 5 minutes at room temperature in 50 mM Tris, 1M NaCl, pH 7.5. A synthetic substrate Z-L-Lys-SBzl and DTNB (Ellman's reagent) are added to final concentrations of 100 μM each. […] IC50 values are calculated by nonlinear regression of complement Factor D reaction rates as a function of test compound concentration.
T1 sequence (P00746 26-253): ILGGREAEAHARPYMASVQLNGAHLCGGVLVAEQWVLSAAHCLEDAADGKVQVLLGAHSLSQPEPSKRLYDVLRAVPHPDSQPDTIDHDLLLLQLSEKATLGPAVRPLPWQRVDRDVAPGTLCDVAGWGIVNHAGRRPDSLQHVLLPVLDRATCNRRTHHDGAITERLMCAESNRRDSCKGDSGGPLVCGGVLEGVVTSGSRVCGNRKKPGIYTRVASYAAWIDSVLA
Regarding `CC(=O)c1cn(CC(=O)N2[C@H](C(=O)NCc3cccc(Cl)c3F)C[C@@H]3CCCC[C@@H]32)c2ccccc12` [Compound 1, (2S,3aS,7aS)-1-(2-(3-acetyl-1H-indol-1-yl)acetyl)-N-(3-chloro-2-fluorobenzyl)octa-hydro-1H-indole-2-carboxamide], the IC50 (commonly the point on the concentration scale where inhibition reaches its midpoint) is less than 1 µM.

Consider `CC(=O)c1cn(CC(=O)N2C[C@H](F)[C@@H](OCC3CC3)[C@H]2C(=O)NCc2cccc(Cl)c2F)c2cc(O)ccc12` [Compound 21, (2S,3S,4S)-1-(2-(3-acetyl-6-hydroxy-1H-indol-1-yl)acetyl)-N-(3-chloro-2-fluorobenzyl)-3-(cyclopropylmethoxy)-4-fluoropyrrolidine-2-carboxamide], for which the IC50 was less than 1 µM.

`O=C(c1cn(CC(=O)N2[C@@H]3C[C@@H]3C[C@H]2C(=O)NCc2cccc(Cl)c2F)c2ccccc12)C1CC1` [Compound 22, (1R,3S,5R)-N-(3-chloro-2-fluorobenzyl)-2-(2-(3-(cyclopropanecarbonyl)-1H-indol-1-yl)acetyl)-2-azabicyclo[3.1.0] hexane-3-carboxamide] yielded a 50% inhibitory concentration (IC50) of less than 1 µM.

In turn, `CC(=O)c1cn(CC(=O)N2CC(F)C(OCC3CC3)[C@H]2C(=O)NCc2cccc(Cl)c2F)c2cc(O)ccc12` (stereo partly drawn) [Compound 25, (2S)-1-(2-(3-acetyl-6-hydroxy-1H-indol-1-yl)acetyl)-N-(3-chloro-2-fluorobenzyl)-3-(cyclopropylmethoxy)-4-fluoropyrrolidine-2-carboxamide] came in with an IC50 of less than 1 µM.

Staying with this test, now noted: Table 1; Human Factor D 80 nM, substrate Z-L-Lys-SBzl; read-out: IC50.
As for `CC(=O)n1cc(NC(=O)[C@@H]2C[C@@H](F)CN2C(=O)NCc2cccc(Cl)c2F)c2ccccc21` [Compound 3, (2S,4R)-N2-(1-acetyl-1H-indol-3-yl)-N1-(3-chloro-2-fluorobenzyl)-4-fluoropyrrolidine-1,2-dicarboxamide], the IC50 was more than 10 µM.

As for `CC(=O)n1cc(NC(=O)[C@@H]2C[C@H](F)CN2C(=O)NCc2cccc(Cl)c2F)c2ccccc21` [Compound 4, (2S,4S)-N2-(1-acetyl-1H-indol-3-yl)-N1-(3-chloro-2-fluorobenzyl)-4-fluoropyrrolidine-1,2-dicarboxamide], the half-maximal inhibitory concentration (IC50) is more than 10 µM.

For `CC(=O)n1cc(NC(=O)[C@@H]2C[C@H](F)CN2C(=O)NCc2ccccc2)c2ccccc21` [Compound 5, (2S,4S)-N2-(1-acetyl-1H-indol-3-yl)-N1-benzyl-4-fluoropyrrolidine-1,2-dicarboxamide], the IC50 was more than 10 µM.

As to `NC(=O)n1cc(NC(=O)N2C[C@H](F)C[C@H]2C(=O)NS(=O)(=O)c2cccc(Cl)c2F)c2ccccc21` [Compound 6, (2S,4R)-N1-(1-carbamoyl-1H-indol-3-yl)-N2-(3-chloro-2-fluorophenylsulfonyl)-4-fluoropyrrolidine-1,2-dicarboxamide], the IC50 is more than 10 µM.

`CC(=O)n1cc(NC(=O)N2C[C@H](F)C[C@H]2C(=O)NS(=O)(=O)c2cccc(Cl)c2F)c2ccccc21` [Compound 7, (2S,4R)-N1-(1-acetyl-1H-indol-3-yl)-N2-(3-chloro-2-fluorophenylsulfonyl)-4-fluoropyrrolidine-1,2-dicarboxamide]: the IC50 is more than 10 µM.

For the molecule `CC(=O)n1cc(NC(=O)[C@H]2CC(F)(F)CN2C(=O)NCc2cccc(Cl)c2F)c2ccccc21` [Compound 8, (R)-N2-(1-acetyl-1H-indol-3-yl)-N1-(3-chloro-2-fluorobenzyl)-4,4-difluoropyrrolidine-1,2-dicarboxamide], the IC50 is more than 10 µM.

For the molecule `CC(=O)n1cc(NC(=O)[C@H]2CCCN2C(=O)NCc2cccc(Cl)c2F)c2ccccc21` [Compound 9, (R)-N2-(1-acetyl-1H-indol-3-yl)-N1-(3-chloro-2-fluorobenzyl)pyrroli-dine-1,2-dicarboxamide], the IC50 was more than 10 µM.

For `CC(=O)c1cn(CC(=O)N2C[C@H](F)C[C@H]2c2ncc(-c3cccc(Cl)c3)[nH]2)c2ccccc12` [Compound 11, 2-(3-acetyl-1H-indol-1-yl)-1-((2S,4R)-2-(5-(3-chlorophenyl)-1H-imidazol-2-yl)-4-fluoropyrrolidin-1-yl)ethanone], the IC50 was more than 10 µM.

Regarding `CC(=O)c1cn(CC(=O)N2C[C@H](F)C[C@H]2c2nc3cc(Cl)ccc3[nH]2)c2ccccc12` [Compound 15], the 50% inhibitory concentration (IC50) is more than 10 µM.

For `CC(=O)n1cc(NC(=O)[C@H]2CCCN2C(=O)Nc2cccc(OC(F)(F)F)c2F)c2ccccc21` [Compound 16, (R)-N2-(1-acetyl-1H-indol-3-yl)-N1-(2-fluoro-3-(trifluoromethoxy)phenyl)pyrrolidine-1,2-dicarboxamide], the IC50 is more than 10 µM.

Consider `CC(=O)n1cc(NC(=O)[C@H]2CC(F)(F)CN2C(=O)Cc2cccc(Cl)c2F)c2ccccc21` [Compound 17, (R)-N-(1-acetyl-1H-indol-3-yl)-1-(2-(3-chloro-2-fluorophenyl)acetyl)-4,4-difluoropyrrolidine-2-carboxamide], for which the IC50 is more than 10 µM.

For the molecule `CC(=O)c1cn(CC(=O)N2CC[C@@H](OCC3CC3)[C@H]2C(=O)NCc2cccc(Cl)c2F)c2ccccc12` [Compound 18, (2S,3R)-1-(2-(3-acetyl-1H-indol-1-yl)acetyl)-N-(3-chloro-2-fluorobenzyl)-3-(cyclopropylmethoxy) pyrrolidine-2-carboxamide], the IC50 was less than 1 µM.

Regarding `COc1ccc2c(O[C@@H]3C[C@@H](C(=O)NCc4cccc(Cl)c4F)N(C(=O)Nc4cn(C(C)=O)c5ccccc45)C3)cc(-c3ccccc3)nc2c1` [Compound 19, (2S,4R)-N1-(1-acetyl-1H-indol-3-yl)-N2-(3-chloro-2-fluorobenzyl)-4-(7-methoxy-2-phenylquinolin-4-yloxy)pyrrolidine-1,2-dicarboxamide], the IC50 was more than 10 µM.

For `CC(=O)n1cc(NC(=O)Nc2cn(C(C)=O)c3ccccc23)c2ccccc21` [Compound 20, 1,3-bis(1-acetyl-1H-indol-3-yl)urea], the IC50 is more than 10 µM.

On to `O=C(c1cn(CC(=O)N2C[C@H](F)C[C@H]2C(=O)NCc2cccc(Cl)c2F)c2ccccc12)C1CC1` [Compound 24, (2S,4R)-N-(3-chloro-2-fluorobenzyl)-1-(2-(3-(cyclopropanecarbonyl)-1H-indol-1-yl)acetyl)-4-fluoropyrrolidine-2-carboxamide], for which the IC50 is less than 1 µM.

`NC(=O)N1CC(NC(=O)[C@@H]2CCC[C@H]2C(=O)NCc2cccc(Cl)c2F)c2ccccc21` (stereo partly drawn) [Compound 26, (1R,2R)-N1-(1-carbamoylindolin-3-yl)-N2-(3-chloro-2-fluorobenzyl)cyclo-pentane-1,2-dicarboxamide]: the IC50 is more than 10 µM.

As for `CC(=O)c1cn(CC(=O)N2C[C@H](F)C[C@H]2Cn2cc(-c3ccc(F)cc3)nn2)c2ccccc12` [Compound 27, 2-(3-acetyl-1H-indol-1-yl)-1-((2S,4R)-4-fluoro-2-((4-(4-fluorophenyl)-1H-1,2,3-triazol-1-yl)methyl)pyrrolidin-1-yl)ethanone], the IC50 is more than 10 µM.

Turning to `NC(=O)n1cc(NC(=O)N2C[C@H](F)C[C@H]2Cn2cc(-c3ccc(F)cc3)nn2)c2ccccc21` [Compound 28, 3-((2S,4R)-4-fluoro-2-((4-(4-fluorophenyl)-1H-1,2,3-triazol-1-yl)methyl)pyrrolidine-1-carboxamido)-1H-indole-1-carboxamide], the IC50 was more than 10 µM.

For the origin of these results see patent US10092584B2 (Achillion Pharmaceuticals, Inc., priority 2015, dated 2018).
